Test results taken from patent US20050137172A1, “Haloacetamide and azide substituted compounds and methods of use thereof” (priority 2003, published 2005).
Where two headings read alike, the source gives them in different places.

Assays:
[1] = tested on: LNCaP cells; test: TUNEL assay (apoptosis, DNA fragmentation); type: cell-based, human; conditions: LNCaP cells exposed for 24 hours, relative to 0.1% DMSO vehicle control
Procedure: MATERIALS: In Situ Cell Death Detection Kit, Fluorescein (Roche).
METHODS: DNA fragmentation of apoptotic cells was monitored by the TUNEL assay as described by the supplier. Briefly, LNCaP cells were plated at 2×10^5 cells/well in 2-well chamber slides and incubated at 37° C., 5% CO2 for 24 h to allow the cells sufficient time to attach and be in log phase growth at the start of the experiment. The media was aspirated and replaced with media containing vehicle control (DMSO) or drug dissolved in DMSO. The total volume of DMSO/drug added to each well was equal to 0.1% of the media volume in each well. LNCaP cells were treated with vehicle control, and increasing concentrations of Compound A and Compound B ([…]) for 24-48 h. Two wells were treated with the same concentration of the drugs or DMSO for each treatment condition listed above. The media was collected along with the trypsinized cells and centrifuged at 150 ×g for 4 min. The cells were resuspended in 50 μl PBS, pipetted onto poly-lysine coated slides, and then fixed in 4% methanol-free formaldehyde in PBS (H 7.4) for 25 min at 4° C. Cells were permeabilized in 0.2% Triton X-100 in PBS for 5 min at room temperature. […] Green and red fluorescence emissions were observed microscopically using 520 nm and >620 nm filters, respectively.

[2] = tested on: LNCaP; test: Cell growth inhibition (sulforhodamine B assay); type: cell-based; conditions: Homo sapiens, read-out: IC50 LNCaP
Procedure: (§1) Prostate cancer cell lines were obtained from ATCC. All cells were grown in RPMI-1640 medium containing 2 mM L-glutamine supplemented with 10% fetal bovine serum (FBS) and maintained in a 5% CO2/95% air humidified atmosphere at 37° C.
(§2) Cells were plated on 96-well plates and incubated with drug-containing culture medium (200 μL/well) for 4 (DU 145, PC-3, PPC-1, and TSU) or 6 (LNCaP) days. Medium was replaced with freshly prepared batches every other day during the incubation. At the end of drug treatment, an aliquot of 50 μL of cold (4° C.) trichloroacetic acid (TCA, 50%) was gently layered on the top of growth medium in each well to make a final TCA concentration of 10%. The mixtures were incubated at 4° C. for 1 hour, and then washed 5 times with tap water to remove TCA, growth medium, low-molecular-weight metabolites, and serum proteins. The plates were air dried overnight. Next, fixed cells were stained with 50 μL of SRB solution (0.4%, wt/vol) for 10 minutes. After staining, SRB solution was decanted, and plates were quickly rinsed 5 times with 1% acetic acid to remove unbound dye and air dried overnight. The cellular protein-bound SRB was then dissolved with 200 μL unbuffered Tris base (10 mM, pH 10.5) for 30 minutes on a rocking platform shaker, and absorbance at 540 nm was measured by a plate reader.
(§3) Percentage of cell survival was calculated by absorbance at 540 nm in testing wells divided by absorbance in negative control wells (medium without the test compound). Percentages of cell survival versus drug concentrations were plotted and the concentration of drug that inhibited cell growth by 50% (IC50) was determined by nonlinear regression using WinNonlin (Pharsight Corporation, Mountain View, Calif.).
(§4) METHODS: LNCaP, DU145, PC-3, TSU, and PPC-1 cells were cultured in 96-well plates and treated with increasing concentrations of the compound of interest for 4 days. Cell survival was determined by the sulforhodamine B assay and was plotted as a percentage of control (drug-free wells) versus drug concentration. The concentration of drug that inhibited cell growth by 50% (IC50) was determined by nonlinear regression. Known anticancer drugs were used as cytotoxic positive controls.

[3] = tested on: DU145; test: Cell growth inhibition (sulforhodamine B assay); type: cell-based; conditions: Homo sapiens, DU-145, 96 h, read-out: IC50 DU145
Procedure: as §1, §2, §3, §4

[4] = tested on: PC-3; test: Cell growth inhibition (sulforhodamine B assay); type: cell-based; conditions: Homo sapiens, PC-3, 96 h, read-out: IC50 PC-3
Procedure: as §1, §2, §3, §4

[5] = tested on: TSU; test: Cell growth inhibition (sulforhodamine B assay); type: cell-based; conditions: Homo sapiens, 96 h, read-out: IC50 TSU
Procedure: as §1, §2, §3, §4

[6] = tested on: PPC-1; test: Cell growth inhibition (sulforhodamine B assay); type: cell-based; conditions: Homo sapiens, PPC-1, 96 h, read-out: IC50 PPC-1
Procedure: as §1, §2, §3, §4

[7] = tested on: LNCaP cells; test: Growth curve (trypan blue cell count, 120 h); type: cell-based, human
Procedure: (§5) MATERIALS: DMSO is the vehicle control and the solvent for Compound A and Compound B.
(§6) METHODS: Cells were plated at 5-10×10^4 cells/well in five 6-well plates and incubated at 37° C., 5% CO2 for 24 h to allow the cells sufficient time to attach and be in log phase growth at the start of the experiment. The media was aspirated from four of the plates and replaced with media containing vehicle control (DMSO) or drug dissolved in DMSO. The total volume of DMSO/drug added to each well was equal to 0.1% of the media volume in each well. LNCaP, PC-3, MCF-7, and CV-1 cells were treated with vehicle control, and increasing concentrations of Compound A and Compound B (0.01, 0.05, 0.1, 0.5, 1.0, 5.0, and 10.0 μM). Three wells were treated with the same concentration of the drugs or DMSO for each treatment condition listed above. The cells from the remaining 6-well plate were collected and counted to determine plating efficiency. The 6-well plates containing DMSO/drug were incubated for 120 h at 37° C., 5% CO2. After 120 h, the media from each well was collected along with trypsinized cells and centrifuged at 150×g for 4 min. The cells were resuspended in 1 mL of media, from which 90 μl was taken and combined with 10 μl trypan blue for counting on a hemacytometer.

[8] = tested on: five prostate cancer cell lines; test: Cell growth inhibition (sulforhodamine B assay), all five lines together; type: cell-based, human; conditions: for IC50 values in inhibiting the growth of all of five prostate cancer cell lines: DU 145, PC-3, TSU, PPC-1, LNCaP; for IC50s from one-day treatment versus 4 or 6 days treatment: comparison of treatment durations
Procedure: as §1, §2, §3, §4

[9] = tested on: MCF-7 cells; test: Growth curve (trypan blue cell count, 120 h); type: cell-based; conditions: FIG. 2B
Procedure: as §5, §6

[10] = sulforhodamine B assay, 4 or 6 days treatment
[11] = sulforhodamine B assay, 4 days treatment

C[C@](O)(COc1ccc(N2C(=O)C=CC2=O)cc1)C(=O)Nc1ccc([N+](=O)[O-])c(C(F)(F)F)c1 (hydrate or solvate)
melting point: 82 to 84 °C

C[C@](O)(COc1ccc(NC(=O)C(Cl)(Cl)Cl)cc1)C(=O)Nc1ccc([N+](=O)[O-])c(C(F)(F)F)c1 (hydrate or solvate)
melting point: 59 to 61 °C

C[C@](O)(COc1ccc(NC(=O)CBr)cc1)C(=O)Nc1ccc([N+](=O)[O-])c(C(F)(F)F)c1 [Compound A]
Apoptosis (green fluorescence, fragmented DNA) in TUNEL assay [1]: exhibit green fluorescence
IC50 [2, 10]: 1.1 ± 0.2 µM
IC50 [3, 11]: 1.3 ± 0.3 µM
IC50 [4, 11]: 2.41 ± 0.6 µM
IC50 [5, 11]: 0.4 ± 0.3 µM
IC50 [6, 11]: 1.1 ± 0.1 µM
Growth inhibitory activity across cell lines (selectivity) ([7]; LNCaP versus PC-3, MCF-7 and CV-1 cells, FIG. 2A): non-selective growth inhibitory activity
IC50 values in inhibiting the growth of all of five prostate cancer cell lines [8]: low micro-molar range
IC50s from one-day treatment versus 4 or 6 days treatment [8]: did not show significant difference

C[C@](O)(COc1ccc(NC(=O)C(F)(F)F)cc1)C(=O)Nc1ccc([N+](=O)[O-])c(C(F)(F)F)c1
melting point: 58 to 60 °C

N[C@@H](Cc1ccc(N(CCCl)CCCl)cc1)C(=O)O [Melphalan, reference compound]
IC50 [2]: 10.3 ± 0.1 µM
IC50 [3]: 31 ± 4.8 µM
IC50 [4]: 30.4 ± 3.1 µM
IC50 [5]: 4 ± 0.2 µM
IC50 [6]: 16.2 ± 1.8 µM

C[C@](O)(COc1ccc(NC(=O)CCl)cc1)C(=O)Nc1ccc([N+](=O)[O-])c(C(F)(F)F)c1 [Compound B]
Concentration at which MCF-7 cells are sensitive [9]: > 5 µM
Apoptosis (green fluorescence, fragmented DNA) in TUNEL assay [1]: similar
IC50 [2, 10]: 4.4 ± 0.8 µM
IC50 [3, 11]: 0.9 ± 0.1 µM
IC50 [4, 11]: 4.2 ± 0.2 µM
IC50 [5, 11]: 1.4 ± 0.4 µM
IC50 [6, 11]: 1.8 ± 0.1 µM
Sensitivity of LNCaP cells relative to PC-3 or CV-1 cells ([7]; growth curve, FIG. 2B): approximately 10 fold
IC50 values in inhibiting the growth of all of five prostate cancer cell lines [8]: low micro-molar range
IC50s from one-day treatment versus 4 or 6 days treatment [8]: did not show significant difference

O=c1[nH]cc(F)c(=O)[nH]1 [Compound 5-FU, fluorouracil, reference compound]
IC50 [2, 10]: 0.9 ± 0.3 µM
IC50 [3, 11]: 2.6 ± 0.9 µM
IC50 [4, 11]: 12.1 ± 0.9 µM
IC50 [5, 11]: 2.9 ± 0.9 µM
IC50 [6, 11]: 5.5 ± 0.3 µM

C[C@](O)(COc1ccc(NC(=O)CI)cc1)C(=O)Nc1ccc(C#N)c(C(F)(F)F)c1 (hydrate or solvate)
melting point: 78 to 80 °C
